Tested on: katGFSAA6 Mtb (INH-resistant, frameshift at amino acid 6 in katG)
Assay type: cell-based, Mycobacterium tuberculosis

SMILES | doubling time
O=C(O)[C@@H]1CSc2c(C3CC3)c(Cc3cccc4ccccc34)cc(=O)n21 [Example 1, (3R)-7-Cyclopropyl-6-[(1-naphthyl)methyl]-4-oxo-1-thia-3a-aza-3-indancarboxylic acid] | 48 h
NNC(=O)c1ccncc1 [INH, isonicotinylhydrazide, reference compound] | 55 h

— patent US20230115208A1, “RING-FUSED THIAZOLINO 2-PYRIDONES, METHODS FOR PREPARATION THEREOF AND THEIR USE IN THE TREATMENT AND/OR PREVENTION OF TUBERCULOSIS” (QURETECH BIO AB, priority 2016, published 2023)
